Test results taken from the supplement of paper PMC8967900.

How the values were obtained:
Assay in all cases: selective drug sensitivity score (sDSS, relative to normal bone marrow) (sDSS (score)); higher = more potent and effective on the cell line relative to normal bone marrow cells
Conditions in all cases: 72 h
[1] = tested on: COG-LL-317
[2] = tested on: MOLT-4
[3] = tested on: MHH-CALL-2
[4] = tested on: PF-382
[5] = tested on: MHH-CALL-4
[6] = tested on: NALM-6
[7] = tested on: KARPAS-45
[8] = tested on: 697
[9] = tested on: TANOUE
[10] = tested on: SEM cells
[11] = tested on: NALM-16
[12] = tested on: RCH-ACV
[13] = tested on: P30-OHKUBO
[14] = tested on: CCRF-HSB2
[15] = tested on: HAL-01
[16] = tested on: ALL-PO
[17] = tested on: KOPN-8
[18] = tested on: RPMI-8402
[19] = tested on: COG-LL-402h
[20] = tested on: MHH-CALL-3
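Note: ALL cell lines in 384-well plates, five doses spanning 10,000-fold, each plate scaled between vehicle and 100 µmol/L benzalkonium chloride controls, sDSS an adapted area-under-curve metric.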

SMILES	selective drug sensitivity score [1]	selective drug sensitivity score [2]	selective drug sensitivity score [3]	selective drug sensitivity score [4]	selective drug sensitivity score [5]	selective drug sensitivity score [6]	selective drug sensitivity score [7]	selective drug sensitivity score [8]	selective drug sensitivity score [9]	selective drug sensitivity score [10]	selective drug sensitivity score [11]	selective drug sensitivity score [12]	selective drug sensitivity score [13]	selective drug sensitivity score [14]	selective drug sensitivity score [15]	selective drug sensitivity score [16]	selective drug sensitivity score [17]	selective drug sensitivity score [18]	selective drug sensitivity score [19]	selective drug sensitivity score [20]
Nc1cc(F)ccc1NC(=O)c1ccc(CNC(=O)/C=C/c2cccnc2)cc1 [Tucidinostat] (top concentration 10000 nM)	2.74	-0.76	9.14	0.74	9.94	-0.36	8.74	6.34	-8.66	10.3	-0.36	11.1	4.04	2.14	-2.06	2.94	12.4	2.94	5.34	11.4
Cn1cnc2c(F)c(Nc3ccc(Br)cc3Cl)c(C(=O)NOCCO)cc21 [Selumetinib] (top concentration 10000 nM)	-3.5	-3.7	8.5	-1.8	4.2	5	-3.8	-1	-4.1	-0.3	-1.3	-3.7	-2.1	0.8	11	-2.8	7	-4.1	-2.3	15.4
COc1c(C)cnc(Cn2cnc3c(Cl)nc(N)nc32)c1C [BIIB021] (top concentration 10000 nM)	10.2	11.8	2.48	5.78	1.28	7.88	8.88	4.28	-8.12	7.38	2.38	9.58	3.38	10.8	3.98	5.88	12	0.68	5.78	9.58
CN(c1ncccc1CNc1nc(Nc2ccc3c(c2)CC(=O)N3)ncc1C(F)(F)F)S(C)(=O)=O (top concentration 10000 nM)	-1.28	1.02	-1.28	-0.78	-0.78	5.22	2.72	2.62	-3.98	7.22	0.42	3.62	2.72	1.42	-0.18	6.62	1.02	1.52	2.42	4.82
CC(=O)O[C@]1(C(C)=O)CC[C@H]2[C@@H]3C=C(C)C4=CC(=O)CC[C@]4(C)[C@H]3CC[C@@]21C [Megestrol_acetate] (top concentration 10000 nM)	-0.58	0.02	14.5	0.32	7.52	1.72	2.72	2.52	-0.38	3.42	-0.58	4.32	4.42	0.62	3.32	17.9	3.02	0.52	-0.38	4.22
Cn1cc(-c2ccc(F)c(C(F)(F)F)c2)nc1C1CCN(c2ncnc3[nH]ncc23)CC1 (top concentration 10000 nM)	1.76	0.36	0.26	-0.14	1.86	-0.14	0.06	0.76	0.96	-0.14	-0.14	8.26	-0.14	-0.14	1.66	0.66	9.76	-0.14	-0.14	5.16
O=C(O)c1ccc2c(c1)nc(Nc1cccc(Cl)c1)c1ccncc12 [Silmitasertib] (top concentration 10000 nM)	4	0.6	6.6	2	2.2	4	4.1	3.5	-0.3	1.4	-1.4	0.8	1.8	4.4	3.8	1.9	11.4	3.3	0.2	-1.4
C[C@@H]1COC(Nc2ccc3ncnc(Nc4ccc(OCc5nccs5)c(Cl)c4)c3c2)=N1 [Varlitinib] (top concentration 10000 nM)	-0.18	-0.18	5.02	-0.18	0.82	-0.18	-0.18	3.82	-0.18	2.92	0.92	5.92	4.32	0.12	-0.18	5.12	8.32	4.92	-0.18	-0.18
Cc1ncc(Cl)cc1NCc1ccc(C(=O)N[C@@H](CC2CCCC2)C(=O)NC2CC2)s1 (top concentration 5000 nM)	18.9	3.26	-0.24	-0.94	-0.94	-0.94	-0.94	-0.94	-0.94	-0.94	1.06	1.46	-0.94	0.66	1.16	-0.94	2.96	-0.94	13.1	8.26
O=C(Nc1c[nH]nc1-c1nc2ccc(CN3CCOCC3)cc2[nH]1)NC1CC1 [AT9283] (top concentration 1000 nM)	14.2	3.72	3.42	7.72	4.92	6.82	9.22	12.1	-4.38	14.7	-0.68	6.02	16	11.4	1.92	6.32	10.3	4.32	7.72	10.4
Cn1cc(CNCC2CCN(c3ncc(C(=O)NO)cn3)CC2)c2ccccc21 [Quisinostat] (top concentration 1000 nM)	7.18	2.98	8.28	2.08	5.98	1.78	8.18	8.68	-7.62	6.38	-1.32	14.2	7.18	1.28	-5.02	5.98	10.5	5.58	17.6	17
NC1(C(=O)N[C@@H](CCO)c2ccc(Cl)cc2)CCN(c2ncnc3[nH]ccc23)CC1 [AZD-5363] (top concentration 10000 nM)	8.82	7.42	7.82	4.42	5.52	7.12	5.82	5.32	-2.88	4.82	0.12	10.9	5.22	4.02	4.02	5.82	6.72	3.52	5.62	6.72
Nc1cc(C(F)(F)F)c(-c2cc(N3CCOCC3)nc(N3CCOCC3)n2)cn1 [Buparlisib] (top concentration 10000 nM)	1.08	4.38	5.28	5.38	2.78	4.78	5.28	7.38	-1.22	7.08	3.98	13.3	7.28	4.18	4.98	9.58	7.28	6.88	5.58	-1.22
CC(C)(C)Cn1c(N)nc2ccc(-c3[nH]c(C(C)(C)C)nc3-c3ccc(F)cc3)nc21 [Ralimetinib] (top concentration 10000 nM)	0.96	8.36	1.46	2.06	-0.84	-0.24	5.36	5.66	-0.44	1.76	-0.84	11.5	4.66	1.26	-0.74	8.56	4.26	4.26	2.26	-0.84
CN[C@@H]1C[C@H]2O[C@@](C)([C@@H]1OC)n1c3ccccc3c3c4c(c5c6ccccc6n2c5c31)C(=O)N[C@H]4O [UCN-01] (top concentration 10000 nM)	11.8	3.74	7.94	5.44	8.14	4.94	6.74	12.9	-9.56	7.74	0.74	18	7.74	9.34	2.94	8.64	10.6	5.24	8.94	6.24
CCN(CC)CCNC(=O)c1c(C)[nH]c(/C=C2\C(=O)Nc3ccc(F)cc32)c1C [Sunitinib] (top concentration 1000 nM)	-1.44	-0.94	1.86	-1.44	2.06	-1.44	-0.64	1.16	-1.44	15.3	-1.04	1.46	0.76	1.36	3.36	14.2	-1.44	-1.24	-1.44	-1.44
CC(C)[C@@H](CS(=O)(=O)C(C)C)N1C(=O)[C@@](C)(CC(=O)O)C[C@H](c2cccc(Cl)c2)[C@H]1c1ccc(Cl)cc1 [AMG-232] (top concentration 10000 nM)	15.1	10.1	11.7	-8.94	10.9	7.96	-8.34	9.06	-10.5	-8.34	-10.2	12.1	8.96	9.26	11	-6.94	10.4	-9.14	9.26	12.6
COc1cc(Nc2ncc(F)c(Nc3ccc4c(n3)NC(=O)C(C)(C)O4)n2)cc(OC)c1OC [Tamatinib] (top concentration 10000 nM)	-5.42	-5.42	-4.92	-4.32	-4.62	-5.42	-2.92	1.28	-5.32	12	-1.42	14	4.38	4.78	-2.92	9.98	-2.12	0.68	-1.22	-5.42
